Experimental data published in patent publication US6737383B1, “Herbicidal oxadiazolidines” (priority 1999, dated 2004).

Key:
sugar beet = experiment: Test B pre/postemergence sugar beet; format: in vivo, Beta vulgaris
How it was run: (§1)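 Herbicidal effect was estimated by eye on a ten-point control scale after plants spent twelve to sixteen days in a greenhouse following soil or foliar treatment. Foliar sprays targeted plants at one to four leaves; all doses were formulated in a non-phytotoxic solvent with surfactant.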

giant foxtail = experiment: Test B pre/postemergence giant foxtail; format: in vivo, Setaria faberii
How it was run: as §1

cocklebur = experiment: Test B pre/postemergence cocklebur; format: in vivo, Xanthium strumarium
How it was run: as §1

rice = experiment: Test B flood test rice; format: in vivo, Oryza sativa; settings: for Rice plant response rating: scale of 0 to 10 where 0 is no effect and 10 is complete control
How it was run: (§2)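 Each value is a visual injury score relative to controls, with 10 meaning complete control and 0 no effect. Evaluation took place twelve to sixteen days after the 2-leaf-stage plants were treated and kept in the greenhouse.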

wild oat = experiment: Test B pre/postemergence wild oat; format: in vivo, Avena fatua
How it was run: as §1

duck salad = experiment: Test B flood test duck salad; format: in vivo, Heteranthera limosa; settings: for Plant response rating, Ducksalad: scale 0 to 10, 0 is no effect, 10 is complete control; for Ducksalad plant response rating: scale of 0 to 10 where 0 is no effect and 10 is complete control
How it was run: as §2

blackgrass = experiment: Test B pre/postemergence blackgrass; format: in vivo, Alopecurus myosuroides
How it was run: as §1

corn = experiment: Test B pre/postemergence corn; format: in vivo, Zea mays
How it was run: as §1

pigweed = experiment: Test B pre/postemergence pigweed; format: in vivo, Amaranthus retroflexus
How it was run: as §1

crabgrass = experiment: Test B pre/postemergence crabgrass; format: in vivo, Digitaria sanguinalis
How it was run: as §1

smallflower flatsedge = experiment: Test B flood test smallflower flatsedge; format: in vivo, Cyperus difformis; settings: for S. Flatsedge plant response rating: scale of 0 to 10 where 0 is no effect and 10 is complete control
How it was run: as §2

soybean = experiment: Test B pre/postemergence soybean; format: in vivo, Glycine max
How it was run: as §1

purple nutsedge = experiment: Test B pre/postemergence purple nutsedge; format: in vivo, Cyperus rotundus
How it was run: as §1

surinam grass = experiment: Test B pre/postemergence surinam grass; format: in vivo, Brachiaria decumbens
How it was run: as §1

morningglory = experiment: Test B pre/postemergence morningglory; format: in vivo, Ipomoea hederacea
How it was run: as §1

[1] = Postemergence, Rate 250 g/ha, scale 0 to 10, 0 is no effect, 10 is complete control
[2] = Postemergence, Rate 500 g/ha, scale of 0 to 10 where 0 is no effect and 10 is complete control
[3] = Preemergence, Rate 62 g/ha, scale 0 to 10 (0 no effect, 10 complete control)
[4] = Preemergence, Rate 125 g/ha, scale of 0 to 10 where 0 is no effect and 10 is complete control
[5] = Preemergence, Rate 250 g/ha, scale 0 to 10, 0 is no effect, 10 is complete control
[6] = Preemergence, Rate 500 g/ha, scale 0 to 10, 0 is no effect, 10 is complete control
[7] = Rate 62 g/ha, Postemergence, scale of 0 to 10 where 0 is no effect and 10 is complete control
[8] = Postemergence, Rate 125 g/ha, scale 0 to 10, 0 is no effect, 10 is complete control
[9] = Postemergence section (flood test species), Rate 500 g/ha
[10] = Rate 62 g/ha, Postemergence (flood test species)
[11] = flood test species, listed under Postemergence, Rate 250 g/ha, scale 0 to 10, 0 is no effect, 10 is complete control
[12] = Preemergence, Rate 250 g/ha, scale of 0 to 10 where 0 is no effect and 10 is complete control

## CC(=O)C(C)n1c(=O)on(C(=O)N(c2ccc(F)cc2)C(C)C)c1=O (centres unmarked) [Compound 400]
Sugar beet; [1]
  Plant response rating, Sugarbeets: 0
Sugar beet; [2]
  Sugarbeets plant response rating: 0
Sugar beet; [3]
  Plant response rating, Sugarbeets: 0
Sugar beet; [4]
  Plant response rating, Sugarbeets: 0
Sugar beet; [5]
  Sugarbeets plant response rating: 2
Sugar beet; [6]
  Sugarbeets plant response rating: 4
Sugar beet; [7]
  Sugarbeets plant response rating: 0
Giant foxtail; [8]
  Plant response rating, Giant foxtail: 8
Giant foxtail; [1]
  Plant response rating, Giant foxtail: 9
Giant foxtail; [2]
  Giant foxtail plant response rating: 9
Giant foxtail; [3]
  Plant response rating, Giant foxtail: 9
Giant foxtail; [4]
  Plant response rating, Giant foxtail: 9
Giant foxtail; [5]
  Giant foxtail plant response rating: 10
Giant foxtail; [6]
  Giant foxtail plant response rating: 10
Giant foxtail; [7]
  Giant foxtail plant response rating: 5
cocklebur; [8]
  Plant response rating, Cocklebur: 0
cocklebur; [1]
  Plant response rating, Cocklebur: 0
cocklebur; [2]
  Cocklebur plant response rating: 0
cocklebur; [3]
  Plant response rating, Cocklebur: 0
cocklebur; [4]
  Plant response rating, Cocklebur: 0
cocklebur; [5]
  Cocklebur plant response rating: 0
cocklebur; [6]
  Cocklebur plant response rating: 0
cocklebur; [7]
  Cocklebur plant response rating: 0
rice; [9]
  Rice plant response rating: 0
rice; [10]
  Rice plant response rating: 0
rice; [11]
  Plant response rating, Rice: 0
Wild oat; [2]
  Wild oats plant response rating: 0
Wild oat; [3]
  Plant response rating, Wild oats: 0
Wild oat; [4]
  Plant response rating, Wild oats: 0
Wild oat; [5]
  Wild oats plant response rating: 0
Wild oat; [6]
  Wild oats plant response rating: 0
Wild oat; [7]
  Wild oats plant response rating: 0
Duck salad; Postemergence (flood test), Rate 125 g/ha
  Plant response rating, Ducksalad: 0
Duck salad; [9]
  Ducksalad plant response rating: 0
Duck salad; [10]
  Ducksalad plant response rating: 0
Duck salad; flood test species, listed under Postemergence, Rate 250 g/ha
  Plant response rating, Ducksalad: 0
blackgrass; [8]
  Plant response rating, Blackgrass: 4
blackgrass; [1]
  Plant response rating, Blackgrass: 8
blackgrass; [2]
  Blackgrass plant response rating: 8
blackgrass; [3]
  Plant response rating, Blackgrass: 0
blackgrass; [4]
  Plant response rating, Blackgrass: 0
blackgrass; [12]
  Blackgrass plant response rating: 0
blackgrass; [6]
  Blackgrass plant response rating: 0
blackgrass; [7]
  Blackgrass plant response rating: 0
corn; [8]
  Plant response rating, Corn: 0
corn; [1]
  Plant response rating, Corn: 0
corn; [2]
  Corn plant response rating: 0
corn; [3]
  Plant response rating, Corn: 0
corn; [4]
  Plant response rating, Corn: 0
corn; [5]
  Corn plant response rating: 2
corn; [6]
  Corn plant response rating: 2
corn; [7]
  Corn plant response rating: 0
pigweed; [1]
  Plant response rating, Redroot pigweed: 0
pigweed; [2]
  Redroot pigweed plant response rating: 0
pigweed; [3]
  Plant response rating, Redroot pigweed: 3
pigweed; [4]
  Plant response rating, Redroot pigweed: 4
pigweed; [5]
  Redroot pigweed plant response rating: 6
pigweed; [6]
  Redroot pigweed plant response rating: 6
pigweed; [7]
  Redroot pigweed plant response rating: 0
crabgrass; [1]
  Plant response rating, Crabgrass: 6
crabgrass; [2]
  Crabgrass plant response rating: 9
crabgrass; [3]
  Plant response rating, Crabgrass: 6
crabgrass; [4]
  Plant response rating, Crabgrass: 9
crabgrass; [5]
  Crabgrass plant response rating: 10
crabgrass; [6]
  Crabgrass plant response rating: 10
crabgrass; [7]
  Crabgrass plant response rating: 0
Smallflower flatsedge; [9]
  S. Flatsedge plant response rating: 0
Smallflower flatsedge; [10]
  S. Flatsedge plant response rating: 0
Smallflower flatsedge; [11]
  Plant response rating, S. Flatsedge: 0
soybean; [1]
  Plant response rating, Soybean: 4
soybean; [2]
  Soybean plant response rating: 4
soybean; [3]
  Plant response rating, Soybean: 0
soybean; [4]
  Plant response rating, Soybean: 0
soybean; [5]
  Soybean plant response rating: 0
soybean; [6]
  Soybean plant response rating: 0
soybean; [7]
  Soybean plant response rating: 1
Purple nutsedge; [1]
  Plant response rating, Nutsedge: 0
Purple nutsedge; [2]
  Nutsedge plant response rating: 0
Purple nutsedge; [3]
  Plant response rating, Nutsedge: 0
Purple nutsedge; [4]
  Plant response rating, Nutsedge: 0
Purple nutsedge; [5]
  Nutsedge plant response rating: 0
Purple nutsedge; [6]
  Nutsedge plant response rating: 0
Purple nutsedge; [7]
  Nutsedge plant response rating: 0
Surinam grass; [8]
  Plant response rating, B. signalgrass: 2
Surinam grass; [1]
  Plant response rating, B. signalgrass: 3
Surinam grass; [2]
  B. signalgrass plant response rating: 4
Surinam grass; [3]
  Plant response rating, B. signalgrass: 0
Surinam grass; [4]
  Plant response rating, B. signalgrass: 0
Surinam grass; [12]
  B. signalgrass plant response rating: 2
Surinam grass; Preemergence, Rate 500 g/ha, scale of 0 to 10 where 0 is no effect and 10 is complete control
  B. signalgrass plant response rating: 4
Surinam grass; [7]
  B. signalgrass plant response rating: 0
morningglory; [1]
  Plant response rating, Morningglory: 3
morningglory; [2]
  Morningglory plant response rating: 6
morningglory; [3]
  Plant response rating, Morningglory: 0
morningglory; [4]
  Plant response rating, Morningglory: 0
morningglory; [5]
  Morningglory plant response rating: 0
morningglory; [6]
  Morningglory plant response rating: 0
morningglory; [7]
  Morningglory plant response rating: 0
